Experiment: Particle size by laser diffraction using photo correlation spectroscopy (Nicomp C370)
Type: physicochemical
Conditions: ganaxolone particles in spray-dried mixture with lactose (Example I)
Protocol: For purposes of the present invention, particle size in the mixtures is determined by a laser diffraction technique using photo correlation spectroscopy (Nicomp C370). The results are reported in terms of volume-weighted mean diameter. Volume-weighted mean diameter is defined as follows: (Σnd^4)/(Σnd^3) where n=the number of particles in a size interval characterized by a diameter “d”. Remington's Pharmaceutical Sciences, 18th edition, Mack Publishing Company, Easton, Pa. (1990).
Approximately 100 g of ganaxolone was dissolved in 5 kg of ethanol with slight warming to 30° C. The solution was sprayed into 1 kg of spray-dried lactose NF (Fast Flo #316) in a Vector FL-M-1 fluid bed system equipped with a 6″ Wurster column. The spray rate was 34–41 mL/min using one gun. The static inlet pressure was 2.5–8 bar (250–800 kPa) affording an air flow of 25–45 cfm. The inlet temperature was 85–90° C. and the product temperature was 27–48° C. The resulting ganaxolone powder mixture was free-flowing and contained 63 mg ganaxolone per g of powder. The ganaxolone particle size in the mixture was determined by a laser diffraction technique using photo correlation spectroscopy (Nicomp C370).

CC(=O)[C@H]1CC[C@H]2[C@@H]3CC[C@H]4C[C@](C)(O)CC[C@]4(C)[C@H]3CC[C@]12C [ganaxolone, 3α-hydroxy-3β-methyl-5α-pregnan-20-one]
volume-weighted mean diameter: 660 nm

Reference: US7078057B2, “Process for producing nanometer particles by fluid bed spray-drying” (priority 1999, dated 2006)
